According to patent US8058437B2, “(Pyrroloquinoxalinyl) pyrazinecarbohydrazide-oxalic acid co-crystal for treatment of cancer and other diseases” (Novelix Pharmaceuticals, Inc., priority 2008, dated 2011):

Experiment: Salt formation experiments / physical characteristics of solid forms
Format: physicochemical
Details: solid hydrochloride salt
Protocol: Thus, a series of experiments was conducted to assess the preparation of NVX-144 salts of acids other than hydrochloric acid as possible novel compounds better suited to pharmaceutical preparations. […] As expected, NVX-144 base readily formed salts with strong organic acids.
Although oxalic acid co-crystals are rare, Trask et al. have reported a co-crystal of caffeine with oxalic acid (see Trask et al., “Pharmaceutical Cocrystallization: Engineering a Remedy for Caffeine Hydration,” Crystal Growth & Design, 5, 1013-21 (2005)).
Thus NVX-144 would not be expected to form a salt with oxalic acid, a relatively strong dicarboxylic acid.

Cl.O=C(NNc1nc2cc(F)ccc2n2cccc12)c1cnccn1 [NVX-144.HCl, N′-(7-fluoropyrrolo[1,2a]quinoxalin-4-yl)pyrazine-2-carbohydrazide hydrochloride]
physical characteristics of crystals: fluffy, statically-charged, hygroscopic crystals
